From the NIST ThermoML archive (doi:10.1021/je700542v)
“And” between values parts separate entries of the source, which are not always exact repeats. Identical values can stand only once. ± gives the expanded uncertainty stated by the source.

Conditions: Crystal

[Cu+2].[F-].[F-] [copper difluoride]
Conditions	vapor or sublimation pressure
881 K	2.188e-05 ± 2.2e-06 kPa
886 K	2.951e-05 ± 3e-06 kPa
895 K	4.365e-05 ± 4.4e-06 kPa
896 K	3.715e-05 ± 3.7e-06 kPa and 4.365e-05 ± 4.4e-06 kPa
897 K	4.365e-05 ± 4.4e-06 kPa
900 K	4.365e-05 ± 4.4e-06 kPa
901 K	5.129e-05 ± 5.1e-06 kPa
902 K	5.129e-05 ± 5.1e-06 kPa
903 K	5.888e-05 ± 5.9e-06 kPa
906 K	5.888e-05 ± 5.9e-06 kPa
908 K	5.888e-05 ± 5.9e-06 kPa
909 K	8.128e-05 ± 8.1e-06 kPa
911 K	6.607e-05 ± 6.6e-06 kPa
912 K	8.912e-05 ± 8.9e-06 kPa
913 K	7.413e-05 ± 7.4e-06 kPa
914 K	8.128e-05 ± 8.2e-06 kPa
915 K	8.912e-05 ± 8.9e-06 kPa and 7.413e-05 ± 7.4e-06 kPa
918 K	7.413e-05 ± 7.4e-06 kPa
919 K	0.0001023 ± 1e-05 kPa
921 K	0.0001175 ± 1.2e-05 kPa
922 K	0.0001023 ± 1e-05 kPa and 9.55e-05 ± 9.6e-06 kPa
924 K	0.0001175 ± 1.2e-05 kPa
925 K	0.0001096 ± 1.1e-05 kPa
928 K	0.0001175 ± 1.2e-05 kPa
929 K	0.0001318 ± 1.3e-05 kPa
930 K	0.0001318 ± 1.3e-05 kPa and 0.0001479 ± 1.5e-05 kPa and 0.0001622 ± 1.6e-05 kPa
931 K	0.0001096 ± 1.1e-05 kPa
932 K	0.0001622 ± 1.6e-05 kPa
934 K	0.0001479 ± 1.5e-05 kPa
939 K	0.0001905 ± 1.9e-05 kPa and 0.0001778 ± 1.8e-05 kPa
940 K	0.0001905 ± 1.9e-05 kPa and 0.0002188 ± 2.2e-05 kPa
941 K	0.0001778 ± 1.8e-05 kPa
942 K	0.0002042 ± 2e-05 kPa
943 K	0.0002042 ± 2e-05 kPa
944 K	0.0001905 ± 1.9e-05 kPa
948 K	0.0002512 ± 2.5e-05 kPa and 0.0002344 ± 2.3e-05 kPa
949 K	0.0002512 ± 2.5e-05 kPa
950 K	0.000309 ± 3.1e-05 kPa
952 K	0.0002818 ± 2.8e-05 kPa and 0.000263 ± 2.6e-05 kPa
953 K	0.0002818 ± 2.8e-05 kPa
955 K	0.000309 ± 3.1e-05 kPa
956 K	0.0002951 ± 3e-05 kPa and 0.0002818 ± 2.8e-05 kPa
959 K	0.0003715 ± 3.7e-05 kPa and 0.0003548 ± 3.6e-05 kPa
960 K	0.0003802 ± 3.8e-05 kPa
961 K	0.0004365 ± 4.4e-05 kPa
964 K	0.0004266 ± 4.3e-05 kPa
965 K	0.0003802 ± 3.8e-05 kPa and 0.0004074 ± 4.1e-05 kPa
969 K	0.0005012 ± 5e-05 kPa [middle of 4 runs]
970 K	0.0005888 ± 5.9e-05 kPa
973 K	0.0005495 ± 5.5e-05 kPa and 0.0005129 ± 5.1e-05 kPa
974 K	0.0005129 ± 5.1e-05 kPa
976 K	0.0006166 ± 6.2e-05 kPa
978 K	0.0006607 ± 6.6e-05 kPa
979 K	0.0006607 ± 6.6e-05 kPa and 0.0007413 ± 7.4e-05 kPa
982 K	0.0006607 ± 6.6e-05 kPa
983 K	0.0007413 ± 7.4e-05 kPa
984 K	0.0006761 ± 6.8e-05 kPa
986 K	0.0008128 ± 8.1e-05 kPa and 0.0008318 ± 8.3e-05 kPa
988 K	0.0008318 ± 8.3e-05 kPa
989 K	0.0007943 ± 7.9e-05 kPa
990 K	0.0008511 ± 8.5e-05 kPa
992 K	0.0009772 ± 9.8e-05 kPa
993 K	0.001023 ± 0.00021 kPa
996 K	0.001122 ± 0.00023 kPa and 0.001097 ± 0.00022 kPa
998 K	0.001122 ± 0.00023 kPa and 0.001023 ± 0.00021 kPa
999 K	0.001097 ± 0.00022 kPa
1002 K	0.001288 ± 0.00027 kPa
1003 K	0.00123 ± 0.00026 kPa
1005 K	0.001445 ± 0.00031 kPa and 0.001412 ± 0.0003 kPa
1006 K	0.001412 ± 0.0003 kPa
1007 K	0.001349 ± 0.00029 kPa
1008 K	0.001445 ± 0.00031 kPa
1011 K	0.001698 ± 0.00038 kPa
1013 K	0.00182 ± 0.00041 kPa
1014 K	0.001862 ± 0.00042 kPa
1015 K	0.001906 ± 0.00043 kPa and 0.001778 ± 0.0004 kPa
1016 K	0.001738 ± 0.00039 kPa
1020 K	0.002188 ± 0.00051 kPa and 0.001995 ± 0.00046 kPa
1023 K	0.002455 ± 0.00059 kPa
1024 K	0.002455 ± 0.00059 kPa
1025 K	0.00257 ± 0.00062 kPa and 0.002455 ± 0.00059 kPa and 0.002239 ± 0.00053 kPa
1030 K	0.00263 ± 0.00064 kPa
1032 K	0.00309 ± 0.00077 kPa
1033 K	0.003162 ± 0.00079 kPa
1051 K	0.005129 ± 0.0014 kPa

[Ag+].[F-] [silver fluoride]
Conditions	vapor or sublimation pressure
880 K	5.754e-05 ± 5.8e-06 kPa
891 K	5.248e-05 ± 5.3e-06 kPa
894 K	7.763e-05 ± 7.8e-06 kPa
897 K	7.763e-05 ± 7.8e-06 kPa
904 K	8.318e-05 ± 8.3e-06 kPa
910 K	0.0001549 ± 1.6e-05 kPa and 9.772e-05 ± 9.8e-06 kPa and 0.0001047 ± 1e-05 kPa
912 K	0.0001047 ± 1e-05 kPa
913 K	0.0001349 ± 1.4e-05 kPa
914 K	0.0001549 ± 1.6e-05 kPa
917 K	0.0001549 ± 1.6e-05 kPa
920 K	0.0002291 ± 2.3e-05 kPa and 0.0001549 ± 1.6e-05 kPa and 0.000166 ± 1.7e-05 kPa
921 K	0.0001738 ± 1.7e-05 kPa
925 K	0.000166 ± 1.7e-05 kPa
928 K	0.0002344 ± 2.3e-05 kPa
929 K	0.000195 ± 2e-05 kPa and 0.0002089 ± 2.1e-05 kPa
931 K	0.0001738 ± 1.7e-05 kPa and 0.0002512 ± 2.5e-05 kPa
933 K	0.0002089 ± 2.1e-05 kPa
936 K	0.0002692 ± 2.7e-05 kPa
938 K	0.0002692 ± 2.7e-05 kPa
939 K	0.0003715 ± 3.7e-05 kPa
941 K	0.0002399 ± 2.4e-05 kPa
942 K	0.0002692 ± 2.7e-05 kPa
947 K	0.0004074 ± 4.1e-05 kPa
948 K	0.000309 ± 3.1e-05 kPa and 0.0004266 ± 4.3e-05 kPa
949 K	0.0005248 ± 5.3e-05 kPa and 0.0003467 ± 3.5e-05 kPa and 0.0003715 ± 3.7e-05 kPa
955 K	0.0003715 ± 3.7e-05 kPa
956 K	0.0004266 ± 4.3e-05 kPa
958 K	0.0005012 ± 5e-05 kPa and 0.0004677 ± 4.7e-05 kPa
965 K	0.000537 ± 5.4e-05 kPa and 0.0005012 ± 5e-05 kPa
966 K	0.0006918 ± 6.9e-05 kPa
967 K	0.0006761 ± 6.8e-05 kPa
968 K	0.0008913 ± 8.9e-05 kPa
974 K	0.0006456 ± 6.5e-05 kPa
975 K	0.0006761 ± 6.8e-05 kPa
977 K	0.0007244 ± 7.2e-05 kPa and 0.0007763 ± 7.8e-05 kPa
978 K	0.0008511 ± 8.5e-05 kPa
979 K	0.0008913 ± 8.9e-05 kPa
984 K	0.001047 ± 0.00021 kPa
985 K	0.000871 ± 8.7e-05 kPa and 0.000912 ± 9.1e-05 kPa and 0.0009772 ± 9.8e-05 kPa
986 K	0.001445 ± 0.00031 kPa
987 K	0.0008913 ± 8.9e-05 kPa
990 K	0.001175 ± 0.00024 kPa
994 K	0.001097 ± 0.00022 kPa and 0.001175 ± 0.00024 kPa
995 K	0.001698 ± 0.00038 kPa
996 K	0.001349 ± 0.00029 kPa and 0.001071 ± 0.00022 kPa
1000 K	0.001479 ± 0.00032 kPa and 0.001585 ± 0.00035 kPa
1004 K	0.001445 ± 0.00031 kPa
1005 K	0.00123 ± 0.00026 kPa
1008 K	0.002239 ± 0.00053 kPa
1010 K	0.001862 ± 0.00042 kPa
1012 K	0.00166 ± 0.00037 kPa and 0.001778 ± 0.0004 kPa
1013 K	0.001995 ± 0.00046 kPa and 0.001412 ± 0.0003 kPa
1014 K	0.001738 ± 0.00039 kPa
1017 K	0.00263 ± 0.00064 kPa
1019 K	0.002399 ± 0.00057 kPa
1022 K	0.002089 ± 0.00048 kPa and 0.002239 ± 0.00053 kPa
1025 K	0.002344 ± 0.00056 kPa
1026 K	0.001995 ± 0.00046 kPa
1031 K	0.002455 ± 0.00059 kPa and 0.00263 ± 0.00064 kPa
1034 K	0.00257 ± 0.00062 kPa
1036 K	0.003311 ± 0.00083 kPa
1037 K	0.003548 ± 0.0009 kPa
1040 K	0.00309 ± 0.00077 kPa and 0.003311 ± 0.00083 kPa
1049 K	0.003715 ± 0.00095 kPa and 0.003981 ± 0.001 kPa
1057 K	0.004467 ± 0.0012 kPa and 0.004786 ± 0.0013 kPa
